According to PMC5218480 (PLoS ONE, 2017):

System: MV-4-11 cells
Assay: Gene expression microarray analysis (Affymetrix PrimeView) and GSEA
Format: cell-based, human
Parameters: RFU PODN (11730768_x_at) / Fold change /veh PODN (11730768_x_at) / RFU LINC00158 (11744669_a_at) / Fold change /veh LINC00158 (11744669_a_at) / RFU DUSP10 (11751237_a_at) / Fold change /veh DUSP10 (11751237_a_at) / RFU ID3 (11757404_x_at) / Fold change /veh ID3 (11757404_x_at) / RFU PLEKHG5 (11737974_s_at) / Fold change /veh PLEKHG5 (11737974_s_at) / RFU LRRC4B (11730491_at) / Fold change /veh LRRC4B (11730491_at) / RFU GIMAP4 (11747438_a_at) / Fold change /veh GIMAP4 (11747438_a_at) / RFU KRT8 (11758183_x_at) / Fold change /veh KRT8 (11758183_x_at) / RFU CNN1 (11734310_a_at) / Fold change /veh CNN1 (11734310_a_at) / RFU VPS37D (11726825_at) / Fold change /veh VPS37D (11726825_at) / RFU C10orf10 (11716522_x_at) / Fold change /veh C10orf10 (11716522_x_at) / RFU KIR2DL2 /// KIR2DL4 /// KIR2DL5A /// KIR2DL5B /// KIR2DS1 /// KIR2DS2 /// KIR2DS3 /// KIR2DS4 /// KIR3DL3 /// KIR3DL3 /// KIR3DS1 (11738374_at) / Fold change /veh KIR2DL2 /// KIR2DL4 /// KIR2DL5A /// KIR2DL5B /// KIR2DS1 /// KIR2DS2 /// KIR2DS3 /// KIR2DS4 /// KIR3DL3 /// KIR3DL3 /// KIR3DS1 (11738374_at) / RFU C1QL1 (11718748_at) / Fold change /veh C1QL1 (11718748_at) / RFU TMPRSS4 (11747572_a_at) / Fold change /veh TMPRSS4 (11747572_a_at) / RFU HAMP (11756126_x_at) / Fold change /veh HAMP (11756126_x_at) / RFU RNFT2 (11725882_a_at) / Fold change /veh RNFT2 (11725882_a_at) / RFU NR4A2 (11747474_a_at) / Fold change /veh NR4A2 (11747474_a_at) / RFU ABCC12 (11746883_a_at) / Fold change /veh ABCC12 (11746883_a_at) / RFU TMEM136 (11760407_x_at) / Fold change /veh TMEM136 (11760407_x_at) / RFU CLDN22 /// WWC2 (11732394_at) / Fold change /veh CLDN22 /// WWC2 (11732394_at) / RFU HLA-DPB1 (11760878_x_at) / Fold change /veh HLA-DPB1 (11760878_x_at) / RFU SPINT1 (11716480_a_at) / Fold change /veh SPINT1 (11716480_a_at) / RFU GAP43 (11754022_s_at) / Fold change /veh GAP43 (11754022_s_at) / RFU A4GNT (11735810_at) / Fold change /veh A4GNT (11735810_at) / RFU PRB3 (11715151_x_at) / Fold change /veh PRB3 (11715151_x_at) / RFU TUBB4B (11761932_at) / Fold change /veh TUBB4B (11761932_at) / RFU CAPN14 (11732068_a_at) / Fold change /veh CAPN14 (11732068_a_at) / RFU TMCC2 (11721928_a_at) / Fold change /veh TMCC2 (11721928_a_at) / RFU IRGQ (11745062_a_at) / Fold change /veh IRGQ (11745062_a_at) / RFU FAM174B (11720279_a_at) / Fold change /veh FAM174B (11720279_a_at) / RFU TMPRSS4 (11748680_a_at) / Fold change /veh TMPRSS4 (11748680_a_at) / RFU FAM212B (11763350_a_at) / Fold change /veh FAM212B (11763350_a_at) / RFU PLEKHG5 (11743358_a_at) / Fold change /veh PLEKHG5 (11743358_a_at) / RFU ZSCAN30 (11745921_a_at) / Fold change /veh ZSCAN30 (11745921_a_at) / RFU CMKLR1 (11741424_a_at) / Fold change /veh CMKLR1 (11741424_a_at) / RFU LOC101060620 /// MAPK8IP1 (11723275_at) / Fold change /veh LOC101060620 /// MAPK8IP1 (11723275_at) / RFU SPTSSB (11747773_x_at) / Fold change /veh SPTSSB (11747773_x_at) / RFU PRSS12 (11739890_at) / Fold change /veh PRSS12 (11739890_at) / RFU BIN1 (11741810_x_at) / Fold change /veh BIN1 (11741810_x_at) / RFU WNT11 (11732464_a_at) / Fold change /veh WNT11 (11732464_a_at) / RFU C10orf10 (11716521_a_at) / Fold change /veh C10orf10 (11716521_a_at) / RFU C5orf56 (11738089_at) / Fold change /veh C5orf56 (11738089_at) / RFU CYB561 (11721691_x_at) / Fold change /veh CYB561 (11721691_x_at) / RFU ANKRD19P (11752326_a_at) / Fold change /veh ANKRD19P (11752326_a_at) / RFU OR2T12 /// OR2T33 /// OR2T8 (11738714_s_at) / Fold change /veh OR2T12 /// OR2T33 /// OR2T8 (11738714_s_at) / RFU VCAN (11748164_a_at) / Fold change /veh VCAN (11748164_a_at) / RFU JSRP1 (11732532_at) / Fold change /veh JSRP1 (11732532_at) / RFU KRTAP10-11 (11738290_x_at) / Fold change /veh KRTAP10-11 (11738290_x_at) / RFU MYO3A (11730013_a_at) / Fold change /veh MYO3A (11730013_a_at) / RFU EBF3 (11725865_a_at) / Fold change /veh EBF3 (11725865_a_at) / RFU CAMK2N1 (11719241_x_at) / Fold change /veh CAMK2N1 (11719241_x_at) / RFU C5orf56 (11738088_a_at) / Fold change /veh C5orf56 (11738088_a_at) / RFU OLFML3 (11715873_a_at) / Fold change /veh OLFML3 (11715873_a_at) / RFU LOC100653217 /// NTM (11731650_a_at) / Fold change /veh LOC100653217 /// NTM (11731650_a_at) / RFU MAPK11 (11762145_a_at) / Fold change /veh MAPK11 (11762145_a_at) / RFU FIZ1 (11724087_x_at) / Fold change /veh FIZ1 (11724087_x_at) / RFU OASL (11726364_x_at) / Fold change /veh OASL (11726364_x_at) / RFU SOX15 (11748057_x_at) / Fold change /veh SOX15 (11748057_x_at) / RFU CD79A (11719716_a_at) / Fold change /veh CD79A (11719716_a_at) / RFU HIST1H1D (11736915_at) / Fold change /veh HIST1H1D (11736915_at) / RFU CASKIN2 (11723855_a_at) / Fold change /veh CASKIN2 (11723855_a_at) / RFU LOC730098 (11760151_x_at) / Fold change /veh LOC730098 (11760151_x_at) / RFU OR4N2 (11742367_at) / Fold change /veh OR4N2 (11742367_at) / RFU PRRT2 (11749266_a_at) / Fold change /veh PRRT2 (11749266_a_at) / RFU SNX32 (11753110_a_at) / Fold change /veh SNX32 (11753110_a_at) / RFU CDHR5 (11726645_a_at) / Fold change /veh CDHR5 (11726645_a_at) / RFU RCAN1 (11760418_a_at) / Fold change /veh RCAN1 (11760418_a_at) / RFU FAM167A (11723789_a_at) / Fold change /veh FAM167A (11723789_a_at) / RFU FAM26E (11764081_at) / Fold change /veh FAM26E (11764081_at) / RFU ISYNA1 (11749810_s_at) / Fold change /veh ISYNA1 (11749810_s_at) / RFU ACY1 (11761880_at) / Fold change /veh ACY1 (11761880_at) / RFU 11764098_at / Fold change /veh 11764098_at / RFU SAMD14 (11745864_x_at) / Fold change /veh SAMD14 (11745864_x_at) / RFU NPB (11741838_a_at) / Fold change /veh NPB (11741838_a_at) / RFU TMPRSS6 (11731388_a_at) / Fold change /veh TMPRSS6 (11731388_a_at) / RFU KRTAP10-2 (11738614_at) / Fold change /veh KRTAP10-2 (11738614_at) / RFU ARHGAP8 /// PRR5-ARHGAP8 (11727945_x_at) / Fold change /veh ARHGAP8 /// PRR5-ARHGAP8 (11727945_x_at) / RFU KRTAP5-7 /// NADSYN1 (11734609_at) / Fold change /veh KRTAP5-7 /// NADSYN1 (11734609_at) / RFU RASL12 (11751679_a_at) / Fold change /veh RASL12 (11751679_a_at) / RFU CDKN2B (11736163_a_at) / Fold change /veh CDKN2B (11736163_a_at) / RFU PRF1 (11729649_at) / Fold change /veh PRF1 (11729649_at) / RFU, ZNF638 /// ZNF638-IT1 / Fold change vs veh, ZNF638 /// ZNF638-IT1 / RFU, PANK3 / Fold change vs veh, PANK3 / RFU, SH3YL1 / Fold change vs veh, SH3YL1 / RFU, ZEB2 / Fold change vs veh, ZEB2 / RFU, NRIP1 / Fold change vs veh, NRIP1 / RFU, PTTG1IP / Fold change vs veh, PTTG1IP / RFU, CAPN2 / Fold change vs veh, CAPN2 / RFU, MED14 / Fold change vs veh, MED14 / RFU, SNORA58 / Fold change vs veh, SNORA58 / RFU, C1orf63 / Fold change vs veh, C1orf63 / RFU, LRRFIP1 / Fold change vs veh, LRRFIP1 / RFU, NDUFAF7 / Fold change vs veh, NDUFAF7 / RFU, SLC12A2 / Fold change vs veh, SLC12A2 / RFU, IBTK / Fold change vs veh, IBTK / RFU, ESF1 / Fold change vs veh, ESF1 / Fold change vs veh, TMEM50B / RFU, TAOK1 / Fold change vs veh, TAOK1 / RFU, ACBD3 / Fold change vs veh, ACBD3 / RFU, TMA16 / Fold change vs veh, TMA16 / RFU, RWDD3 / Fold change vs veh, RWDD3 / RFU, BCAT1 / Fold change vs veh, BCAT1 / RFU, EDEM3 / Fold change vs veh, EDEM3 / RFU, TMEM33 / Fold change vs veh, TMEM33 / RFU, WDR75 / Fold change vs veh, WDR75 / RFU, AHCTF1 / Fold change vs veh, AHCTF1 / RFU, TFRC / Fold change vs veh, TFRC / RFU, ZDHHC17 / Fold change vs veh, ZDHHC17 / RFU, NOM1 / Fold change vs veh, NOM1 / RFU, ARL8B / Fold change vs veh, ARL8B / RFU, ZBTB11 / Fold change vs veh, ZBTB11 / RFU, TAMM41 / Fold change vs veh, TAMM41 / RFU, KIAA1704 /// LOC100996395 / Fold change vs veh, KIAA1704 /// LOC100996395 / RFU, ING1 / Fold change vs veh, ING1 / RFU, TRMT61B / Fold change vs veh, TRMT61B / RFU, FUBP3 / Fold change vs veh, FUBP3 / RFU, TP53 / Fold change vs veh, TP53 / RFU, TNKS2 / Fold change vs veh, TNKS2 / RFU, ZFP14 / Fold change vs veh, ZFP14 / RFU, ACTR2 / Fold change vs veh, ACTR2 / RFU, PPP3R1 / Fold change vs veh, PPP3R1 / RFU, PIK3R1 / Fold change vs veh, PIK3R1 / RFU, HNRNPA1 / Fold change vs veh, HNRNPA1 / RFU, RNF170 / Fold change vs veh, RNF170 / RFU, ZNF28 / Fold change vs veh, ZNF28 / RFU, RNGTT / Fold change vs veh, RNGTT / RFU, OGT / Fold change vs veh, OGT / RFU, BRD1 / Fold change vs veh, BRD1 / RFU, MARS / Fold change vs veh, MARS / RFU, ZNF655 / Fold change vs veh, ZNF655 / RFU, FAHD1 / Fold change vs veh, FAHD1 / RFU, BDP1 / Fold change vs veh, BDP1 / RFU, LRRCC1 / Fold change vs veh, LRRCC1 / RFU, ARID1A / Fold change vs veh, ARID1A / RFU, ZNF146 / Fold change vs veh, ZNF146 / RFU, ZNF330 / Fold change vs veh, ZNF330 / RFU, GPN3 / Fold change vs veh, GPN3 / RFU, C9orf123 / Fold change vs veh, C9orf123 / RFU, N4BP2L2 / Fold change vs veh, N4BP2L2 / RFU, ARFIP1 / Fold change vs veh, ARFIP1 / RFU, FAM179B / Fold change vs veh, FAM179B / RFU, BCL10 / Fold change vs veh, BCL10 / RFU, UHRF1BP1L / Fold change vs veh, UHRF1BP1L / RFU, BET1 / Fold change vs veh, BET1 / RFU, CNOT2 / Fold change vs veh, CNOT2 / RFU, ZNF268 / Fold change vs veh, ZNF268 / Fold change vs veh, ZNF507 / RFU, DGCR2 / Fold change vs veh, DGCR2 / RFU, WDSUB1 / Fold change vs veh, WDSUB1 / Fold change vs veh, HSP90B1 /// MIR3652 / RFU, ADSS / Fold change vs veh, ADSS / RFU, GK / Fold change vs veh, GK / RFU, ZNF148 / Fold change vs veh, ZNF148 / RFU, TAF9 / Fold change vs veh, TAF9 / RFU, SLC1A5 / Fold change vs veh, SLC1A5 / RFU, SLMO2 / Fold change vs veh, SLMO2 / RFU, ABCC4 / Fold change vs veh, ABCC4 / RFU, LOC101060439 /// RAP1B / Fold change vs veh, LOC101060439 /// RAP1B / RFU, RFX7 / Fold change vs veh, RFX7 / RFU, GTPBP10 / Fold change vs veh, GTPBP10 / RFU, CNEP1R1 / Fold change vs veh, CNEP1R1 / RFU, BIVM-ERCC5 /// ERCC5 / Fold change vs veh, BIVM-ERCC5 /// ERCC5 / RFU, ILF3 / Fold change vs veh, ILF3 / RFU 11762660_at / Fold change /veh 11762660_at / RFU VCAN (11757783_s_at) / Fold change /veh VCAN (11757783_s_at) / RFU DDX43 (11728927_at) / Fold change /veh DDX43 (11728927_at) / RFU KRT8 (11758188_x_at) / Fold change /veh KRT8 (11758188_x_at) / RFU NKD1 (11759106_at) / Fold change /veh NKD1 (11759106_at) / RFU SRD5A1 (11742802_a_at) / Fold change /veh SRD5A1 (11742802_a_at) / RFU TPSAB1 /// TPSB2 (11721975_s_at) / Fold change /veh TPSAB1 /// TPSB2 (11721975_s_at) / RFU GSTM3 (11746129_a_at) / Fold change /veh GSTM3 (11746129_a_at) / RFU IL23R (11737362_x_at) / Fold change /veh IL23R (11737362_x_at) / RFU TMEM51 (11727254_a_at) / Fold change /veh TMEM51 (11727254_a_at) / RFU PIWIL2 (11732686_x_at) / Fold change /veh PIWIL2 (11732686_x_at) / RFU ORM1 (11744905_x_at) / Fold change /veh ORM1 (11744905_x_at) / RFU CCDC152 (11743942_at) / Fold change /veh CCDC152 (11743942_at) / RFU ECM1 (11717891_a_at) / Fold change /veh ECM1 (11717891_a_at) / RFU IL23R (11748794_a_at) / Fold change /veh IL23R (11748794_a_at) / RFU TNFAIP8L3 (11732012_x_at) / Fold change /veh TNFAIP8L3 (11732012_x_at) / RFU MBOAT4 (11741988_at) / Fold change /veh MBOAT4 (11741988_at) / RFU 11764193_at / Fold change /veh 11764193_at / RFU TMEM53 (11763286_at) / Fold change /veh TMEM53 (11763286_at) / RFU MAGEB2 (11727129_at) / Fold change /veh MAGEB2 (11727129_at) / RFU TMEM200A (11744735_a_at) / Fold change /veh TMEM200A (11744735_a_at) / RFU CCDC152 (11751479_a_at) / Fold change /veh CCDC152 (11751479_a_at) / RFU FAM211A (11726209_a_at) / Fold change /veh FAM211A (11726209_a_at) / RFU RGS16 (11746705_a_at) / Fold change /veh RGS16 (11746705_a_at) / RFU VCAN (11755009_s_at) / Fold change /veh VCAN (11755009_s_at) / RFU RHOB (11743442_s_at) / Fold change /veh RHOB (11743442_s_at) / RFU RGS16 (11720943_a_at) / Fold change /veh RGS16 (11720943_a_at) / RFU RGS16 (11720944_at) / Fold change /veh RGS16 (11720944_at) / RFU, VPS4B / Fold change vs veh, VPS4B / RFU, CREB1 / Fold change vs veh, CREB1 / RFU, DNAJC13 / Fold change vs veh, DNAJC13 / RFU, GNAQ / Fold change vs veh, GNAQ / RFU, CDK5R1 / Fold change vs veh, CDK5R1 / RFU, ZRANB3 / Fold change vs veh, ZRANB3 / RFU, CUL4A / Fold change vs veh, CUL4A / RFU, CCNY / Fold change vs veh, CCNY / RFU, UFL1 / Fold change vs veh, UFL1 / RFU, COG3 / Fold change vs veh, COG3 / RFU, DIAPH2 / Fold change vs veh, DIAPH2 / RFU, SKA2 / Fold change vs veh, SKA2 / RFU, AFF3 / Fold change vs veh, AFF3 / RFU, LMF1 / Fold change vs veh, LMF1 / RFU, IPO11 / Fold change vs veh, IPO11 / RFU, DFFB / Fold change vs veh, DFFB / RFU, FOXP1 / Fold change vs veh, FOXP1 / RFU, CARD8 / Fold change vs veh, CARD8 / RFU, STRN3 / Fold change vs veh, STRN3 / RFU, ADK / Fold change vs veh, ADK / RFU, RASSF2 / Fold change vs veh, RASSF2 / RFU, WIPF1 / Fold change vs veh, WIPF1 / RFU, LARP1B / Fold change vs veh, LARP1B / RFU, RASA1 / Fold change vs veh, RASA1 / RFU, RB1 / Fold change vs veh, RB1 / RFU, PPFIA1 / Fold change vs veh, PPFIA1 / RFU, MAT2A / Fold change vs veh, MAT2A / RFU, CCT5 / Fold change vs veh, CCT5 / RFU, WDR92 / Fold change vs veh, WDR92 / RFU, CUX1 / Fold change vs veh, CUX1 / RFU, TTC7A / Fold change vs veh, TTC7A / RFU, TMEM135 / Fold change vs veh, TMEM135 / RFU, DEPTOR / Fold change vs veh, DEPTOR / RFU, CPM / Fold change vs veh, CPM / RFU, DNAJB6 / Fold change vs veh, DNAJB6 / RFU, CACNA2D3 / Fold change vs veh, CACNA2D3 / RFU, DTX4 / Fold change vs veh, DTX4 / RFU, TFCP2 / Fold change vs veh, TFCP2 / RFU, GMCL1 /// GMCL1P1 / Fold change vs veh, GMCL1 /// GMCL1P1 / RFU, AEBP2 / Fold change vs veh, AEBP2 / RFU, SNHG1 /// SNORD22 /// SNORD25 /// SNORD26 /// SNORD27 /// SNORD28 /// SNORD29 /// SNORD31 / Fold change vs veh, SNHG1 /// SNORD22 /// SNORD25 /// SNORD26 /// SNORD27 /// SNORD28 /// SNORD29 /// SNORD31 / Fold change (Aza/veh), C12orf56 (ProbeSet 11735607_a_at) / Fold change (ACY-1035/veh), C12orf56 (ProbeSet 11735607_a_at) / Fold change (Aza/veh), FGFR1OP (ProbeSet 11751329_s_at) / Fold change (ACY-1035/veh), FGFR1OP (ProbeSet 11751329_s_at) / Fold change (Aza/veh), VPS36 (ProbeSet 11739960_a_at) / Fold change (ACY-1035/veh), VPS36 (ProbeSet 11739960_a_at) / RFU SYPL1 (11715823_x_at) / Fold change /veh SYPL1 (11715823_x_at) / RFU IGFBP7 (11715501_s_at) / Fold change /veh IGFBP7 (11715501_s_at) / RFU REEP3 (11722064_at) / Fold change /veh REEP3 (11722064_at) / RFU IGLL1 (11728026_x_at) / Fold change /veh IGLL1 (11728026_x_at): dose or concentration left out as unconfirmed
Details: MV-4-11 cells, 48 hours

Nc1ccc(-c2cccs2)cc1NC(=O)c1ccc2c(c1)cc(C1CC1)n2CCN1CCOCC1 [ACY-1035]
RFU GSTM3 (11746129_a_at): 10.76 RFU
